This is an account of results in patent US8987276B2, “Substituted triazolyl piperazine and triazolyl piperidine derivatives as gamma secretase modulators” (Janssen Pharmaceuticals, Inc., priority 2011, dated 2015).

Series [1] has as its system Aβ42. Description: In vivo efficacy: brain soluble Aβ42 lowering in non-transgenic animals (ELISA). Set-up: species or system mouse. Conditions: dose 30 mg/kg oral dosing; brain soluble fraction, 4 h after dose; untreated animals (Ctrl) set at 100. From the text: (§1) To determine whether acute administration of an Aβ42 lowering agent would reduce Aβ42 levels in vivo, non-transgenic rodents, e.g. mice or rats were used. Animals treated with the Aβ42 lowering agent were examined and compared to those untreated or treated with vehicle and brain levels of soluble Aβ42 and total Aβ were quantitated by standard techniques, for example, using ELISA. Treatment periods varied from hours (h) to days and were adjusted based on the results of the Aβ42 lowering once a time course of onset of effect could be established.
(§2) A typical protocol for measuring Aβ42 lowering in vivo is shown but it is only one of many variations that could be used to optimize the levels of detectable A3. For example, Aβ42 lowering compounds were formulated in 20% of Captisol® (a sulfobutyl ether of β-cyclodextrin) in water or 20% hydroxypropyl 0 cyclodextrin. The Aβ42 lowering agents were administered as a single oral dose or by any acceptable route of administration to overnight fasted animals. After 4 h, the animals were sacrificed and Aβ42 levels were analysed.
(§3) Blood was collected by decapitation and exsanguinations in EDTA-treated collection tubes. […] The left hemisphere was stored at −18° C. for quantitative analysis of test compound levels. […]
(§4) Mouse brains from non-transgenic animals were resuspended in 8 volumes of 0.4% DEA (diethylamine)/50 mM NaCl containing protease inhibitors (Roche-11873580001 or 04693159001) per gram of tissue, e.g. for 0.158 g brain, add 1.264 ml of 0.4% DEA. […] Nine parts of supernatant were neutralized with 1 part 0.5 M Tris-HCl pH 6.8 and used to quantify Aβtotal and Aβ42.
(§5) To quantify the amount of Aβtotal and Aβ42 in the soluble fraction of the brain homogenates, Enzyme-Linked-Immunosorbent-Assays were used. […] Following this incubation and subsequent wash steps the ELISA for Aβ42 quantification was finished by addition of Quanta Blu fluorogenic peroxidase substrate according to the manufacturer's instructions (Pierce Corp., Rockford, Il). A reading was performed after 10 to 15 min (excitation 320 nm/emission 420 nm). […]
In general terms: ELISA stands for enzyme-linked immunosorbent assay.

In series [2] the test system is Aβtotal. Description: Screening for γ-secretase-modulating activity: Aβtotal in supernatant of SKNBE2 cells carrying APP 695-wild type (Alphalisa). It is filed as cell-based. Conditions: Homo sapiens, overnight incubation, cell supernatant. How it is done:
(§6) Screening was carried out using SKNBE2 cells carrying the APP 695-wild type, grown in Dulbecco's Modified Eagle's Medium/Nutrient mixture F-12 (DMEM/NUT-mix F-12) (HAM) provided by Invitrogen (cat no. 10371-029) containing 5% Serum/Fe supplemented with 1% non-essential amino acids, 1-glutamine 2 mM, Hepes 15 mM, penicillin 50 U/ml (units/ml) en streptomycin 50 µg/ml. Cells were grown to near confluency.
(§7) The screening was performed using a modification of the assay as described in Citron et al (1997) Nature Medicine 3: 67. Briefly, cells were plated in a 384-well plate at 10^4 cells/well in Ultraculture (Lonza, BE12-725F) supplemented with 1% glutamine (Invitrogen, 25030-024), 1% non-essential amino acid (NEAA), penicillin 50 U/ml en streptomycin […] in the presence of test compound at different test concentrations. The cell/compound mixture was incubated overnight at 37° C., 5% CO2. The next day the media were assayed by two sandwich immuno-assays, for Aβ42 and Aβtotal.
(§8) Aβtotal and Aβ42 concentrations were quantified in the cell supernatant using the Aphalisa technology (Perkin Elmer). Alphalisa is a sandwich assay using biotinylated antibody attached to streptavidin coated donorbeads and antibody conjugated to acceptor beads. In the presence of antigen, the beads come into close proximity. The excitation of the donor beads provokes the release of singlet oxygen molecules that trigger a cascade of energy transfer in the acceptor beads, resulting in light emission.
(§9) To quantify the amount of Aβ42 in the cell supernatant, monoclonal antibody specific to the C-terminus of Aβ42 (JRF/cAB42/26) was coupled to the receptor beads and biotinylated antibody specific to the N-terminus of Aβ (JRF/ABN/25) was used to react with the donor beads. T quantify the amount of Aβtotal in the cell supernatant, monoclonal antibody specifc to the N-terminus of Aβ (JRF/AβN/25) was coupled to the receptor beads and biotinylated antibody specific to the mid region of Aβ (biotinylated 4G8) was used to react with the donor beads.
(§10) To obtain the values reported in Table 3, the data are calculated as percentage of the maximum amount of amyloid Beta 42 measured in the absence of the test compound. The sigmoidal dose response curves were analyzed using non-linear regression analysis with percentage of the control plotted against the log concentration of the compound. A 4-parameter equation was used to determine the IC50.
For orientation: Alpha assays give light when donor and acceptor beads are brought close together.

Series [3] deals with Aβ42. Description: Screening for γ-secretase-modulating activity: Aβ42 in supernatant of SKNBE2 cells carrying APP 695-wild type (Alphalisa). Type of series: cell-based. Conditions: Homo sapiens, overnight incubation, cell supernatant. As to the method: as §6, §7, §8, §9, §10
In series [4] the test system is Aβtotal. Description: In vivo efficacy: brain soluble Aβtotal in non-transgenic animals (ELISA). Conditions: dose 30 mg/kg oral dosing; brain soluble fraction, 4 h after dose; untreated animals (Ctrl) set at 100. Set-up: species or system mouse.
Source text: as §1, §2, §3, §4, §5

What is called IC50 is the midpoint of a concentration-inhibition curve. High values mean weaker potency, low ones greater potency. What is called melting point is the temperature of the solid-liquid transition. On to `COc1ccc(N2CCN(c3nc(Nc4ccccc4C)n(C)n3)CC2(C)C)cc1` [Compound 1, 3-[4-(4-methoxyphenyl)-3,3-dimethyl-1-piperazinyl]-1-methyl-N-(2-methylphenyl)-1H-1,2,4-triazol-5-amine], for which the melting point stood at 156.8 °C. Also, the “Aβ42 (% vs Ctrl)_Mean” value with Aβ42 [1] amounted to 50 % vs Ctrl. Further, the IC50 with Aβtotal [2] is greater than 10000 nM. Also, it took 50 nM to reach half-maximal inhibition in the series on Aβ42 [3] (IC50). The “Aβtotal (% vs Ctrl)_Mean” value with Aβtotal [4] is listed as 107 % vs Ctrl.
